Measured values as given in patent US7056893B2, “Topical treatment for prevention of ocular infections” (Insite Vision, Inc., priority 1999, dated 2006).

What was measured:
[1] = type: physicochemical
Description: The thermal stability of azithromycin at 40° C. is measured in 50 mM phosphate buffer adjusted to the pH values indicated in FIG. 2. FIG. 3 is a secondary plot of data derived from the azithromycin stability profiles in FIG. 2. […] 6-6.5. A formulation pH of 6.3 is preferred to minimize degradation of azithromycin in aqueous formulations including those that employ DuraSite®.

[2] = type: physicochemical; remark: listed apart in the source
Description: Ophthalmic carrier(s) is used in a broad sense and includes any material or composition that can contain and release the azalide antibiotic and that is compatible with the eye. Typically the ophthalmically acceptable carrier is water or an aqueous solution or suspension, but also includes oils such as those used to make ointments and polymer matrices such as used in ocular inserts. […] The stabilized compositions of this invention advantageously employ the increased water solubility of the protonated form of the antibiotic that is compatible with the optimal pH range for azalide antibiotic stability. […] Accordingly, stabilized aqueous solution of an azalide antibiotic can be formed and used for topical application. Alternatively, aqueous compositions containing a portion of the azalide antibiotic in suspension may be employed for topical administration. Ointments and solid dosage forms can also be used as delivery compositions as are well known in the art. The concentration of azalide antibiotic present in the ophthalmic composition depends upon the dosage form, the release rate, the dosing regimen, and the location and type of infection. […]
The solubility of azithromycin is measured as a function of pH in 0.2 M citric acid buffer over the range of pH 5.91 to 9.0.

Compound | pH interval of maximum stability [1] | pH of stability maximum [1] | water solubility [2] [mg/mL]
CCC1OC(=O)C(C)C(OC2CC(C)(OC)C(O)C(C)O2)C(C)C(OC2OC(C)CC(N(C)C)C2O)C(C)(O)CC(C)CN(C)C(C)C(O)C1(C)O (stereo not drawn) [Azithromycin, N-methyl-11-aza-10-deoxo-10-dihydroerythromycin] | 5.0-7.0 | about 6.3 | –
CC[C@H]1OC(=O)[C@H](C)[C@@H](O[C@H]2C[C@@](C)(OC)[C@@H](O)[C@H](C)O2)[C@H](C)[C@@H](O[C@@H]2O[C@H](C)C[C@H](N(C)C)[C@H]2O)[C@](C)(O)C[C@@H](C)CN(C)[C@H](C)[C@@H](O)[C@]1(C)O.O.O [azithromycin dihydrate] | – | – | 200 to 250
